Reference: US20250099952A1, “MICROFLUIDIC DEVICE AND USES THEREOF” (CASE WESTERN RESERVE UNIVERSITY, priority 2019, published 2025)

Key:
RBCs from healthy donors = experiment: Occlusion Chip microfluidic assessment of RBC deformability (RBC Occlusion Index) after chemical treatment; type: cell-based, human; conditions: for RBC Occlusion Index (ROI), mean±SEM: directly suspended in PBS, N=4
Method: Whole blood samples were centrifuged at 500×g for 5 min at 4° C., plasma was removed, and the RBCs were washed twice in PBS, and re-suspended at a 20% hematocrit value. The Occlusion Chip was placed on an Olympus IX83 inverted motorized microscope stage for high-resolution imaging. The RBC samples were perfused through the microchannel under constant pressure for 20 min (FIGS. 12A & B). Non-retained RBCs were rinsed away by injecting PBS into the microchannel under the same pressure. […] Phase contrast, bright field, and fluorescent images were recorded at 20× using the Olympus Cell Sense live imaging software (excitation/emission wavelength, 488/505-580 for Green Fluorescent Protein, GFP). Post processing of recorded images and cell counting were performed using Adobe Photoshop (San Jose, CA). Oxygen tension was controlled in hypoxia experiments using a custom designed gas exchange setup as described in Supplementary Materials. Scanning electron microscopy was performed on the micropillars and RBCs.
Glutaraldehyde, a non-specific protein cross-linker, and diamide, a thiol group oxidant inducing disulfide cross-linking of band 3, are used to stiffen RBCs in order to mimic impaired RBC deformability, seen in pathological conditions. Precisely controlled exposure of RBC to graded concentrations of glutaraldehyde or diamide was utilized to verify Occlusion Chip functionality. RBCs from healthy donors exposed to graded concentrations, 0.00% (as control), 0.02%, 0.04%, and 0.08% (w/v), of glutaraldehyde were mixed with untreated normal RBCs to achieve 1% treated cells and were suspended in PBS for microfluidic assessment. RBCs exposed to same graded concentrations of diamide were directly suspended in PBS for microfluidic assessment. […] The retained RBCs were fluorescently labeled with anti-glycophorin A (CD235a, Abcam, Cambridge, MA) antibodies. […] At the end of the test, numbers of occlusions induced by poorly-deformable RBCs within each micropillar array were quantified (FIGS. 7D&E). […] To assess the overall RBC deformability of specific samples, we assigned different weight to the occlusion events quantitated within different micropillar arrays, and defined a new parameter ‘RBC Occlusion Index’ (ROI) using the following equation,
Mercury is a toxic heavy metal that binds to RBC membranes with high affinity and results in RBC hemolysis. Mercuric ions induce membrane conformational changes and impair RBC deformability.

[1] = system: RBCs in whole venous blood; experiment: Fibrinogen-accelerated RBC sedimentation in whole blood; type: cell-based, human; conditions: fibrinogen stock 40 mg/ml mixed with whole blood 1:9 to 1:1 (v/v), monitored over 20 min, compared to PBS
Method: The experiments are performed immediately after blood draw through […]. We examine the effect of additional fibrinogen on RBC sedimentation, which has been reported to have a marked correlation between the concentration of and the erythrocyte sedimentation rate.
Whole venous blood was drawn with anticoagulated EDTA into a 1.5 ml microcentrifuge tube. Fibrinogen stock solution with the concentration of 40 mg/ml (in PBS) was mixed with whole blood at ratios of 1:9, 1:4, 1:2, and 1:1 (v/v) and the final volume of the mixtures was adjusted to 500 μl. Control groups were mixtures of whole blood and PBS at the same volume ratios. The sedimentation of RBCs was monitored over a period of 20 minutes. […] In addition, fibrinogen mediated RBC sedimentation became stable when it approached 20 min, and no more noticeable difference was observed between blood samples with different concentrations of fibrinogen. Therefore, the 1:9 fibrinogen and whole blood mixture (4 mg/ml final fibrinogen concentration) was selected based on a cost-effective point of view, from which 150 μl plasma was collected for further processing.

Compound: CN(C)C(=O)/N=N/C(=O)N(C)C [diamide]
- RBC Occlusion Index (ROI), mean±SEM (RBCs from healthy donors; RBCs exposed to 0.02% diamide): 329.9±37.2
- RBC Occlusion Index (ROI), mean±SEM (RBCs from healthy donors; RBCs exposed to 0.04% diamide): 459.8±71.6
- RBC Occlusion Index (ROI), mean±SEM (RBCs from healthy donors; RBCs exposed to 0.08% diamide): 645.1±87.6
- effect on RBC stiffness and membrane morphology (RBCs from healthy donors; diamide exposure, micropillar device 20 μm to 4 μm): induce structural stiffening of RBCs without interrupting the cell membrane morphology

Compound: O=CCCCC=O [glutaraldehyde]
- increase in total occlusion level compared to the control (RBCs from healthy donors; 0.08% (w/v) glutaraldehyde): more than 16 fold

Compound: fibrinogen
- RBC sedimentation (visual, words) [1]: significantly accelerated the sedimentation of RBCs compared to PBS

Compound: mercuric ion
- effect on RBC deformability (RBCs from healthy donors): moderately reduces RBC deformability
